PMC9848257, “Design and synthesis of novel rigid dibenzo[b,f]azepines through ring closure technique as promising anticancer candidates against leukaemia and acting as selective topoisomerase II inhibitors and DNA intercalators” (Journal of Enzyme Inhibition and Medicinal Chemistry, 2023)

What was measured:
Type in all cases: cell-based
[1] = test system: SNB-19; test: NCI-60 one-dose screen, SNB-19; conditions: Homo sapiens; SNB-19, CNS cancer; single dose 10 μM; read-out: Growth inhibition %
[2] = test system: HCT-15; test: NCI-60 one-dose screen, HCT-15; conditions: Homo sapiens; HCT-15, colon cancer; single dose 10 μM; read-out: Growth inhibition %
[3] = test system: UACC-62; test: NCI-60 one-dose screen, UACC-62; conditions: Homo sapiens; UACC-62, melanoma; single dose 10 μM; read-out: Growth inhibition %
[4] = test system: SN12C; test: NCI-60 one-dose screen, SN12C; conditions: Homo sapiens, renal cancer, single dose 10 μM, read-out: Growth inhibition %
[5] = test system: HOP-92; test: NCI-60 one-dose screen, HOP-92; conditions: Homo sapiens; HOP-92, non-small cell lung cancer; single dose 10 μM; read-out: Growth inhibition %
[6] = test system: EKVX; test: NCI-60 one-dose screen, EKVX; conditions: Homo sapiens, non-small cell lung cancer, single dose 10 μM, read-out: Growth inhibition %
[7] = test system: MDA-MB-435; test: NCI-60 one-dose screen, MDA-MB-435; conditions: Homo sapiens; MDA-MB-435, melanoma; single dose 10 μM; read-out: Growth inhibition %
[8] = test system: RPMI-8226; test: NCI-60 one-dose screen, RPMI-8226; conditions: Homo sapiens; RPMI-8226, leukaemia; single dose 10 μM; read-out: Growth inhibition %
[9] = test system: ACHN; test: NCI-60 one-dose screen, ACHN; conditions: Homo sapiens, renal cancer, single dose 10 μM, read-out: Growth inhibition %
[10] = test system: LOX IMVI; test: NCI-60 one-dose screen, LOX IMVI; conditions: Homo sapiens, melanoma, single dose 10 μM, read-out: Growth inhibition %
[11] = test system: COLO 205; test: NCI-60 one-dose screen, COLO 205; conditions: Homo sapiens; COLO 205, colon cancer; single dose 10 μM; read-out: Growth inhibition %
[12] = test system: NCI-H23; test: NCI-60 one-dose screen, NCI-H23; conditions: Homo sapiens; NCI-H23, non-small cell lung cancer; single dose 10 μM; read-out: Growth inhibition %
[13] = test system: MALME-3M; test: NCI-60 one-dose screen, MALME-3M; conditions: Homo sapiens, melanoma, single dose 10 μM, read-out: Growth inhibition %
[14] = test system: OVCAR-3; test: NCI-60 one-dose screen, OVCAR-3; conditions: Homo sapiens; OVCAR-3, ovarian cancer; single dose 10 μM; read-out: Growth inhibition %
[15] = test system: OVCAR-4; test: NCI-60 one-dose screen, OVCAR-4; conditions: Homo sapiens; OVCAR-4, ovarian cancer; single dose 10 μM; read-out: Growth inhibition %
[16] = test system: OVCAR-8; test: NCI-60 one-dose screen, OVCAR-8; conditions: Homo sapiens; OVCAR-8, ovarian cancer; single dose 10 μM; read-out: Growth inhibition %
[17] = test system: SR; test: NCI-60 one-dose screen, SR; conditions: Homo sapiens, leukaemia, single dose 10 μM, read-out: Growth inhibition %
[18] = test system: A549-ATCC; test: NCI-60 one-dose screen, A549-ATCC; conditions: Homo sapiens, non-small cell lung cancer, single dose 10 μM, read-out: Growth inhibition %
[19] = test system: KM12; test: NCI-60 one-dose screen, KM12; conditions: Homo sapiens; KM12, colon cancer; single dose 10 μM; read-out: Growth inhibition %
[20] = test system: SF-268; test: NCI-60 one-dose screen, SF-268; conditions: Homo sapiens; SF-268, CNS cancer; single dose 10 μM; read-out: Growth inhibition %
[21] = test system: NCI-H460; test: NCI-60 one-dose screen, NCI-H460; conditions: Homo sapiens; NCI-H460, non-small cell lung cancer; single dose 10 μM; read-out: Growth inhibition %
[22] = test system: CAKI-1; test: NCI-60 one-dose screen, CAKI-1; conditions: Homo sapiens; CAKI-1, renal cancer; single dose 10 μM; read-out: Growth inhibition %
[23] = test system: SK-MEL-5; test: NCI-60 one-dose screen, SK-MEL-5; conditions: Homo sapiens; SK-MEL-5, melanoma; single dose 10 μM; read-out: Growth inhibition %
[24] = test system: T-47D; test: NCI-60 one-dose screen, T-47D; conditions: Homo sapiens, T47D, breast cancer, single dose 10 μM, read-out: Growth inhibition %
[25] = test system: HT29; test: NCI-60 one-dose screen, HT29; conditions: Homo sapiens, HT-29; HT29, colon cancer; single dose 10 μM; read-out: Growth inhibition %
[26] = test system: DU-145; test: NCI-60 one-dose screen, DU-145; conditions: Homo sapiens; DU-145, prostate cancer; single dose 10 μM; read-out: Growth inhibition %
[27] = test system: HOP-62; test: NCI-60 one-dose screen, HOP-62; conditions: Homo sapiens; HOP-62, non-small cell lung cancer; single dose 10 μM; read-out: Growth inhibition %
[28] = test system: NCI-H522; test: NCI-60 one-dose screen, NCI-H522; conditions: Homo sapiens; NCI-H522, non-small cell lung cancer; single dose 10 μM; read-out: Growth inhibition %
[29] = test system: A498; test: NCI-60 one-dose screen, A498; conditions: Homo sapiens; A498, renal cancer; single dose 10 μM; read-out: Growth inhibition %
[30] = test system: HCC-2998; test: NCI-60 one-dose screen, HCC-2998; conditions: Homo sapiens; HCC-2998, colon cancer; single dose 10 μM; read-out: Growth inhibition %
[31] = test system: HL-60(TB); test: NCI-60 one-dose screen, HL-60(TB); conditions: Homo sapiens, leukaemia, single dose 10 μM, read-out: Growth inhibition %
[32] = test system: CCRF-CEM; test: NCI-60 one-dose screen, CCRF-CEM; conditions: Homo sapiens, leukaemia, single dose 10 μM, read-out: Growth inhibition %
[33] = test system: U251; test: NCI-60 one-dose screen, U251; conditions: Homo sapiens, U-251; U251, CNS cancer; single dose 10 μM; read-out: Growth inhibition %
[34] = test system: HS 578 T; test: NCI-60 one-dose screen, HS 578 T; conditions: Homo sapiens, breast cancer, single dose 10 μM, read-out: Growth inhibition %
[35] = test system: UACC-257; test: NCI-60 one-dose screen, UACC-257; conditions: Homo sapiens; UACC-257, melanoma; single dose 10 μM; read-out: Growth inhibition %

Compound	inhibition at 10 µM [1] [%]	inhibition at 10 µM [2] [%]	inhibition at 10 µM [3] [%]	inhibition at 10 µM [4] [%]	inhibition at 10 µM [5] [%]	inhibition at 10 µM [6] [%]	inhibition at 10 µM [7] [%]	inhibition at 10 µM [8] [%]	inhibition at 10 µM [9] [%]	inhibition at 10 µM [10] [%]	inhibition at 10 µM [11] [%]	inhibition at 10 µM [12] [%]	inhibition at 10 µM [13] [%]	inhibition at 10 µM [14] [%]	inhibition at 10 µM [15] [%]	inhibition at 10 µM [16] [%]	inhibition at 10 µM [17] [%]	inhibition at 10 µM [18] [%]	inhibition at 10 µM [19] [%]	inhibition at 10 µM [20] [%]	other results
Cc1ccc(-c2nnc(N3c4ccccc4C=Cc4ccccc43)o2)cc1 [Compound 5d, 2-(5 h-Dibenzo[b,f]azepin-5-yl)-5-(p-tolyl)-1,3,4-oxadiazole]	< 10	61.1	20.9	< 10	14.3	< 10	< 10	52	< 10	25.6	19.4	< 10	< 10	< 10	< 10	11.5	60.6	12.4	13.1	10.1	inhibition at 10 µM [21]: 58.6%; inhibition at 10 µM [22]: 16.2%; inhibition at 10 µM [23]: 34.6%; inhibition at 10 µM [24]: < 10%; inhibition at 10 µM [25]: < 10%; inhibition at 10 µM [26]: < 10%; inhibition at 10 µM [27]: < 10%; inhibition at 10 µM [28]: 17.1%; inhibition at 10 µM [29]: < 10%; inhibition at 10 µM [30]: < 10%; inhibition at 10 µM [31]: 33.8%; inhibition at 10 µM [32]: 26.6%; inhibition at 10 µM [33]: 31.8%; inhibition at 10 µM [34]: 13.2%; inhibition at 10 µM [35]: < 10%
C1=Cc2ccccc2N(c2nnc(-c3ccc4ccccc4c3)o2)c2ccccc21 [Compound 5f, 2-(5 h-Dibenzo[b,f]azepin-5-yl)-5-(naphthalen-2-yl)-1,3,4-oxadiazole]	< 10	57	12.8	15.7	20.9	28.9	< 10	12.1	10.5	18.7	< 10	12.4	< 10	2.22	< 10	9.31	58.4	28.2	< 10	21.9	inhibition at 10 µM [21]: 25.1%; inhibition at 10 µM [22]: 33.1%; inhibition at 10 µM [23]: 15.8%; inhibition at 10 µM [24]: 18.3%; inhibition at 10 µM [25]: < 10%; inhibition at 10 µM [26]: < 10%; inhibition at 10 µM [27]: < 10%; inhibition at 10 µM [28]: 24.2%; inhibition at 10 µM [29]: < 10%; inhibition at 10 µM [30]: < 10%; inhibition at 10 µM [31]: < 10%; inhibition at 10 µM [32]: 28.2%; inhibition at 10 µM [33]: 32.3%; inhibition at 10 µM [34]: < 10%; inhibition at 10 µM [35]: < 10%
C1=Cc2ccccc2N(c2nnc(Cc3ccccc3)o2)c2ccccc21 [Compound 5g, 2-Benzyl-5-(5H-dibenzo[b,f]azepin-5-yl)-1,3,4-oxadiazole]	< 10	4.03	10.8	< 10	< 10	2.24	< 10	27.8	27.7	< 10	< 10	< 10	< 10	12.3	< 10	16.5	17.6	24.7	< 10	10.7	inhibition at 10 µM [21]: 17.4%; inhibition at 10 µM [22]: < 10%; inhibition at 10 µM [23]: < 10%; inhibition at 10 µM [24]: 12%; inhibition at 10 µM [25]: < 10%; inhibition at 10 µM [26]: 16.3%; inhibition at 10 µM [27]: 18.4%; inhibition at 10 µM [28]: < 10%; inhibition at 10 µM [29]: < 10%; inhibition at 10 µM [30]: < 10%; inhibition at 10 µM [31]: 10.6%; inhibition at 10 µM [32]: 15.6%; inhibition at 10 µM [33]: 10.1%; inhibition at 10 µM [34]: 24.1%; inhibition at 10 µM [35]: 19.1%
